Experiments:
[1] = test system: BRD4 and JMJD6 interaction; experiment: Co-immunoprecipitation with added nucleic acid: BRD4/JMJD6 association; type: binding; settings: for association of Flag-BRD4WT with JMJD6 on addition of nucleic acid (in words): double-transfected Flag-BRD4 and His-JMJD6 HEK293T lysate, 1 μM ssRNA, dsDNA or ssDNA; for BRD4/JMJD6 association, endogenous and single-transfected IP, on addition of nucleic acid (in words): endogenous and single-transfected HEK293T IP experiments
Experimental: Incubate at 4 °C overnight.

JMJD6 = settings: biochemical study; ref [21]; cited from earlier work

| Substance | association of Flag-BRD4WT with JMJD6 on addition of nucleic acid (in words) [1] | BRD4/JMJD6 association, endogenous and single-transfected IP, on addition of nucleic acid (in words) [1] | interaction with JMJD6 (in words) (JMJD6) |
| --- | --- | --- | --- |
| ssDNA: 5′-TTTCTAGATCAGGAGCTGTCGGAAGCTATCC-3′; 31 nt (DNA, backbone not given here) | no improvements on JMJD6 interaction with BRD4 | no additional effect |  |
| ssRNA: 5′-AUACGAUGCUUUACGGUGCUAUUUUGU-3′; 27 nt (RNA, backbone not given here) | appears much stronger | no additional effect | can interact |

Source: article PMC5701133, “Structural Mechanism of the Oxygenase JMJD6 Recognition by the Extraterminal (ET) Domain of BRD4” (Scientific Reports, 2017)
